{"source": "patent EP0216105A1", "about": "“Diazaphosphorines, process for their preparation and their use as pesticide” (priority 1985, dated 1987)", "key": {"Haemonchus contortus": {"tested_on": "Haemonchus contortus", "test": "In vivo nematode test, infected sheep (egg count in faeces)", "set-up": "species or system Schafe", "details": "sheep infected with normally sensitive or benzimidazole-resistant Haemonchus contortus, oral, pure active substance in gelatin capsules, worm egg count before and after treatment; for minimal effective dose: read-out: Dosis effectiva", "source_text": "Haemonchus contortus 1 Schaf\nExperimentell mit normal empfindlichen bzw. mit gegen Benzimidazol-Anthelmintika resistenten Haemonchus contortus infizierte Schafe wurden nach Ablauf der Präpatenzzeit des Parasiten behandelt. Die Wirkstoffe wurden als reiner Wirkstoff in Gelatinkapseln oral appliziert.\nDer Wirkungsgrad wird dadurch bestimmt, daß man die mit dem Kot ausgeschiedenen Wurmeier vor und nach der Behandlung quantitativ auszählt.\nEin völliges Sistieren der Eiausscheidung nach der Behandlung bedeutet, daß die Würmer abgetrieben wurden oder so geschädigt sind, daß sie keine Eier mehr produzieren."}, "Strongyloides ratti": {"tested_on": "Strongyloides ratti", "test": "In vivo nematode test, infected rats", "set-up": "species or system Ratten", "details": "dose at which 95% of the parasites were killed, oral by gavage on three consecutive days from day 7 after infection; for ED95: Strongyloides ratti, killed day 13, read-out: effektive Dosis", "source_text": "Experimentell mit Strongyloides ratti infizierte Ratten werden 7 Tage nach der Infektion an drei aufeinanderfolgenden Tagen oral mittels Schlundsonde behandelt. Die Tiere werden 13 Tage nach der Infektion getötet und die Zahl der Parasiten bestimmt. Es wird die […] angegeben, bei der 95% der Parasiten abgetötet wurden (effektive Dosis): […]"}, "[1]": {"tested_on": "Raupe (L5) der Art Spodoptera frugiperda", "test": "Spodoptera test (treated artificial diet discs)", "assay_type": "in vivo", "details": "Spodoptera frugiperda caterpillars (L5) on treated artificial diet; compared with the prior art; figures not given", "source_text": "(§1) • Lösungsmittel: 3 Gewichtsteile Aceton • Emulgator: 1 Gewichtsteil Alkylarylpolyglykolether\nZur Herstellung einer zweckmäßigen Wirkstoffzubereitung vermischt man 1 Gewichtsteil Wirkstoff mit der angegebenen Menge Lösungsmittel und der angegebenen Menge Emulgator und verdünnt das Konzentrat mit Wasser auf die gewünschte Konzentrationen.\nKunstfutterscheiben, die in Plastikdosen liegen, werden durch Beträufeln mit der Wirkstoffzubereitung der gewünschten Konzentration behandelt. Nach Eindringen der Lösung besetzt man die Plastikdosen mit je 1 Raupe (L5) der Art Spodoptera frugiperda, wobei je Versuchsglied 5 Wiederholungen aufgestellt werden. Nach der Verpuppung legt man die Tiere eines Versuchsglieds in eine größere Dose. Nach der gewünschten Zeit wird die Abtötung in % bestimmt. Dabei bedeutet 100 X, daß alle Tiere abgetötet wurden; 0 X bedeutet, daß keine Tiere abgetötet wurden."}, "[2]": {"tested_on": "Mückenlarven (L4) (Aedes aegypti)", "test": "Aedes test (larvae in aqueous preparation)", "assay_type": "in vivo", "details": "20 Aedes aegypti larvae (L4) per glass; compared with the prior art; figures not given", "source_text": "• Löcungcmittal: 3 Gewichtsteile Aceton • Emulgator: 1 Gewichtsteil Alkylarylpolyglykolether\nZur Herstellung einer zweckmäßigen Wirkstoffzubereitung vermischt man 1 Gawichtcteil Wirkstoff mit der angegebenen Menge Löcungcmittel und der angegebenen Menge Emulgator und verdünnt das Konzentrat mit Wasser auf die gewünschte Konzentrationen.\nMan füllt die wässrigen Wirkctoffzubereitungen in Gläser und setzt anschließend 20 Mückenlarven (L4) (Aedes aegypti) in jedes Glas ein.\nNach der gewünschten Zeit wird die Abtötung in % bestimmt. Dabei bedeutet 100 X, daß alle Tiere abgetötet wurden; 0 % bedeutet, daß keine Tiere abgetötet wurden."}, "Caenorhabditis elegans": {"tested_on": "Caenorhabditis elegans", "test": "In vitro nematode test", "details": "Caenorhabditis elegans, 168 h, concentration at which reproduction is prevented; 7 days at 22°C; read-out: Dosis effectiva", "procedure": "10-^4 g Wirkstoff wurden in 1 ml Wasser oder 0,1 ml Dimethylsulfoxid (DMSO) gelöst. Diese Lösung wurde auf eine Replica-Platte gegeben. Dazu wurden 2 ml einer E-coli-Suspension gegeben, in der man 10-20 weibliche Tiere oder Larven von Caenorhabditis elegans in 0,5 ml M9 Pufferlösung gegeben hat. Die E-coli-Suspension wurde hergestellt indem man 300 ml einer Ubernachthalter eines Uracil-bedürftigen E-coli-Stammes mit 1,8 1 steriler M 9 Pufferlösung versetzte.\nDer Versuchsansatz wurde 7 Tage bei 22°C inkubiert und danach ausgewertet. Es wurde bewertet inwieweit der Wirkstoff die Vermehrung beeinträchtigt und die Konzentration angegeben bei der die Vermehrung verhindert wird."}, "[3]": {"tested_on": "Musca domestica-tmultiresistent) Maden", "test": "Fly maggot development inhibition test", "assay_type": "in vivo", "details": "Musca domestica maggots on treated filter paper, 14 days; compared with the prior art; figures not given", "procedure": "Fliegenmaden-Entwicklungshommungstest Testtiere: Musca domestica-tmultiresistent) Maden Lösungsmittel: Aceton\n2 Gewichtsteile Wirkstoff werden in 1 000 Volumenteilen Lösungsmittel aufgenommen. Die so erhaltene Lösung wird mit weiteren Lösungsmitteln auf die gewünschten Konzentrationen verdünnt.\n2,5 ml Wirkstofflösung werden in eine Petrischale pipettiert. Auf dem Boden der Petrischale befindet sich ein Filterpapier mit einem Durchmesser von etwa 9,5 cm. Die Petrischale bleibt so lange offen stehen, bis das Lösungsmittel vollständig verdunstet ist. Je nach Konzentration der Wirkstofflösung ist die Menge Wirkstoff pro m^2 Filterpapier verschieden hoch. Anschließend gibt man etwa 25 Testtiere in die Petrischale und bedeckt sie mit einem Glasdeckel.\n14 Tage nach Ansetzen der Versuche wird die Zahl der geschlüpften Fliegen kontrolliert. Bestimmt wird der X-Satz der Schlüpfhemmung im Vergleich zur unbehandelten Kontrolle."}, "Hymenolepis nana": {"tested_on": "Hymenolepis nana", "test": "In vivo nematode test, infected mice", "set-up": "species or system Mäuse", "details": "Rodentolepis nana, dose at which 95% of the parasites were killed, oral by gavage on four consecutive days from day 10 after infection, killed day 17, read-out: effektive Dosis", "source_text": "Experimentell mit Hymenolepis nana infizierte Mäuse werden 10 Tage nach der Infektion an vier aufeinanderfolgenden Tagen oral mittels Schlundsonde behandelt. Die Tiere werden 17 Tage nach Infektion getötet und die Zahl der Parasiten bestimmt. Es wird die Wirkstoffkonzentration angegeben, bei der 95% der Parasiten abgetötet wurden (effektive Dosis): […]"}, "Heterakis spumosa": {"tested_on": "Heterakis spumosa", "test": "In vivo nematode test, infected mice", "set-up": "species or system Mäuse", "details": "Ganguleterakis spumosa, dose at which 95% of the parasites were killed, oral by gavage on four consecutive days from day 32 after infection, killed day 39, read-out: effektive Dosis", "source_text": "Experimentell mit Heterakis spumosa infizierte Mäuse werden 32 Tage nach der Infektion an vier aufeinanderfolgenden Tage oral mittels Schlundsonde behandelt. Die Tiere werden 39 Tage nach der Infektion getötet und die Zahl der Parasiten bestimmt. Es wird die Wirkstoffkonzentration angegeben bei der 95% der Parasiten abgetötet wurden (effektive Dosis): […]"}, "[4]": {"tested_on": "Larven (L3) des Meerrettichkäfers (Phaedon cochleariae)", "test": "Phaedon larvae test (treated cabbage leaves)", "assay_type": "in vivo", "details": "Phaedon cochleariae larvae (L3) on treated Brassica oleracea leaves; compared with the prior art; figures not given", "source_text": "as §1\nZur Herstellung einer zweckmäßigen Wirkstoffzubereitung vermischt man 1 Gewichtsteil Wirkstoff mit der angegebenen Menge Lösungsmittel und der angegebenen Menge Emulgator und verdünnt das.Konzentrat mit Wasser auf die gewünschte Konzentration.\nKohlpflanzen (Brassica oleracea) werden mit der Wirkstoffzubereitung der gewünschten Konzentration behandelt. Ein Blatt der behandelten Pflanze wird in eine Plastikdose gelegt und mit Larven (L3) des Meerrettichkäfers (Phaedon cochleariae) besetzt. Nach 2 und 4 Tagen wird jeweils ein weiters Blatt von derselben Pflanze für die Nachfütterung verwendet.\nNach der gewünschten Zeit wird die Abtötung in % bestimmt. Dabei bedeutet 100 X, daß alle Käferlarven abgetötet wurden."}, "[5]": {"tested_on": "Lucilia cuprina res.-Larven", "test": "Test with resistant Lucilia cuprina larvae", "assay_type": "in vivo", "details": "horse meat, after 24 hours, compared with the prior art, figures not given", "source_text": "Test mit Lucilia cuprina resistent-Larven\n• Emulgator: 35 Gewichtsteile Ethylenglykolmonomethylether • 35 Gewichtsteile Nonylphenolpolyglykolether\nZur Herstellung einer zweckmäßigen Wirkstoffzubereitung vermischt man drei Gewichtsteile Wirkstoff mit sieben Gewichtsteilen des oben angegebenen Gemisches und verdünnt das so erhaltene Konzentrat mit Wasser auf die jeweils gewünschte Konzentration.\nEtwa 20 Lucilia cuprina res.-Larven werden in ein Teströhrchen gebracht, welches ca. 1 cm^3 Pferdefleisch und O,5 ml der Wirkstoffzubereitung enthält. Nach 24 Stunden wird der Abtötungsgrad bestimmt."}}, "data": [{"smiles": "CN1C(=O)C(C(=O)Nc2ccc(Oc3ccc(C(F)(F)F)cc3)cc2)C(=O)N(C)P1(=O)Oc1ccc(Cl)cc1", "note": "(stereo not shown) [Beispiel 3]", "values": [{"measurement": "minimal effective dose", "setting": "Haemonchus contortus", "value": 50, "unit": "mg/kg"}]}, {"smiles": "CN1C(=O)C(C(=O)Nc2ccc(OC(F)(F)F)cc2)C(=O)N(C)P1(=S)Oc1ccccc1", "note": "(stereo not shown) [Beispiel 7]", "values": [{"measurement": "ED95", "setting": "Strongyloides ratti", "value": 50, "unit": "mg/kg"}, {"measurement": "Abtötung in %", "setting": "[1]", "value": "überlegene Wirksamkeit gegenüber dem Stand der Technik"}, {"measurement": "Abtötung in %", "setting": "[2]", "value": "überlegene Wirksamkeit gegenüber dem Stand der Technik"}, {"measurement": "minimal effective concentration", "setting": "Caenorhabditis elegans", "value": 10, "unit": "µg/mL"}, {"measurement": "minimal effective dose", "setting": "Haemonchus contortus", "value": 50, "unit": "mg/kg"}, {"measurement": "X-Satz der Schlüpfhemmung im Vergleich zur unbehandelten Kontrolle", "setting": "[3]", "value": "überlegene Wirksamkeit gegenüber dem Stand der Technik"}]}, {"smiles": "CN1C(=O)C(C(=O)Nc2ccc(Cl)c(C(F)(F)F)c2)C(=O)N(C)P1(=O)Oc1ccc(Cl)cc1", "note": "(stereo not shown) [Beispiel 9]", "values": [{"measurement": "ED95", "setting": "Hymenolepis nana", "value": 50, "unit": "mg/kg"}, {"measurement": "ED95", "setting": "Strongyloides ratti", "value": 25, "unit": "mg/kg"}, {"measurement": "Abtötung in %", "setting": "[1]", "value": "überlegene Wirksamkeit gegenüber dem Stand der Technik"}, {"measurement": "ED95", "setting": "Heterakis spumosa", "value": 25, "unit": "mg/kg"}, {"measurement": "Abtötung in %", "setting": "[2]", "value": "überlegene Wirksamkeit gegenüber dem Stand der Technik"}, {"measurement": "minimal effective concentration", "setting": "Caenorhabditis elegans", "value": 10, "unit": "µg/mL"}, {"measurement": "minimal effective dose", "setting": "Haemonchus contortus", "value": 25, "unit": "mg/kg"}]}, {"smiles": "CN1C(=O)C(C(=O)Nc2ccc(Cl)c(C(F)(F)F)c2)C(=O)N(C)P1(=O)Oc1ccccc1", "note": "(stereo not shown) [Beispiel 12]", "values": [{"measurement": "ED95", "setting": "Strongyloides ratti", "value": 100, "unit": "mg/kg"}, {"measurement": "Abtötung in %", "setting": "[4]", "value": "überlegene Wirksamkeit gegenüber dem Stand der Technik"}, {"measurement": "ED95", "setting": "Heterakis spumosa", "value": 25, "unit": "mg/kg"}, {"measurement": "Abtötung in %", "setting": "[2]", "value": "überlegene Wirksamkeit gegenüber dem Stand der Technik"}, {"measurement": "minimal effective concentration", "setting": "Caenorhabditis elegans", "value": 10, "unit": "µg/mL"}]}, {"smiles": "CN1C(=O)C(C(=O)Nc2ccc(SC(F)(F)F)cc2)C(=O)N(C)P1(=O)Oc1ccc(Cl)cc1", "note": "(stereo not shown) [Beispiel 24]", "values": [{"measurement": "ED95", "setting": "Strongyloides ratti", "value": 10, "unit": "mg/kg"}, {"measurement": "Abtötung in %", "setting": "[1]", "value": "überlegene Wirksamkeit gegenüber dem Stand der Technik"}, {"measurement": "Abtötungsgrad", "setting": "[5]", "value": "überlegene Wirkung gegenüber dem Stand der Technik"}, {"measurement": "minimal effective concentration", "setting": "Caenorhabditis elegans", "value": 10, "unit": "µg/mL"}, {"measurement": "minimal effective dose", "setting": "Haemonchus contortus", "value": 10, "unit": "mg/kg"}, {"measurement": "X-Satz der Schlüpfhemmung im Vergleich zur unbehandelten Kontrolle", "setting": "[3]", "value": "überlegene Wirksamkeit gegenüber dem Stand der Technik"}]}, {"smiles": "CN1C(=O)C(C(=O)Nc2ccc(Cl)c(C(F)(F)F)c2)C(=O)N(C)P1(=O)Oc1ccc(Cl)cc1", "note": "(stereo not shown) [Beispiel 25]", "values": [{"measurement": "effektive Dosis", "setting": "Strongyloides ratti; killed day 13", "value": 25, "unit": "mg/kg"}, {"measurement": "Abtötungsgrad", "setting": "[5]", "value": "überlegene Wirkung gegenüber dem Stand der Technik"}, {"measurement": "Abtötung in %", "setting": "[4]", "value": "überlegene Wirksamkeit gegenüber dem Stand der Technik"}, {"measurement": "Dosis effectiva", "setting": "Haemonchus contortus", "value": 25, "unit": "mg/kg"}, {"measurement": "X-Satz der Schlüpfhemmung im Vergleich zur unbehandelten Kontrolle", "setting": "[3]", "value": "überlegene Wirksamkeit gegenüber dem Stand der Technik"}]}, {"smiles": "CCN1C(=O)C(C(=O)Nc2ccc(Oc3cccc(C(F)(F)F)c3)cc2)C(=O)N(C)P1(=O)Oc1cccc(Cl)c1", "note": "(stereo not shown) [Beispiel 47]", "values": [{"measurement": "minimal effective dose", "setting": "Haemonchus contortus", "value": 10, "unit": "mg/kg"}]}]}
